Patent US20250177406A1, “PHARMACEUTICAL COMPOSITION FOR TREATING TUMORS” (Eisai R&D Management Co., Ltd., priority 2022, published 2025)
Read-outs that look alike come from different tables or passages of the source.

Experiments:
[1] = test system: xenograft model with the KRAS G12C mutation-positive human non-small cell lung cancer cell line NCI-H358; conditions: sotorasib 100 mg/kg, once per day, oral
Experimental: Matrigel/HBSS (50:50) was added to a KRAS G12C mutation-positive human non-small cell lung cancer cell line, NCI-358 cells, to prepare a cell suspension of 8×10^6 cells. The cell suspension was subcutaneously transplanted into nude mice (CAnN.Cg-Foxn1 nu/CrlCrlj, from Charles River Laboratories Japan, Inc.) at the body flank. Six mice were used per group. The date of transplantation was defined as day 1. […] No drug was administered to the control group.
The date of the initiation of administration was defined as day 1. On days 4, 8, 11, and 15, the long diameter and short diameter of tumors generated in each mouse were measured with a Digimatic Caliper (manufactured by Mitutoyo Corp.).

[2] = test system: xenograft model with the KRAS G12C mutation-positive human non-small cell lung cancer cell line NCI-H358; test: Antitumor effect of combined administration with adagrasib in xenograft model (tumor volume); format: in vivo, nude mice; set-up: unit not given beside the values; conditions: adagrasib 10 mg/kg, once per day, oral
Experimental: Experimental conditions for drug efficacy test using mice with different cell lines (suspension media, cell counts for transplantation, lineages of mice, administered drugs, days of initiation of administration, test periods) were shown in Table 5. Each cell line was prepared with suspension medium to reach an intended cell count for transplantation, and the resulting suspension was subcutaneously transplanted into nude mice (6-week-old, female) at the body flank.
The long diameter and short diameter of tumors generated in each mouse were measured with a Digimatic Caliper (manufactured by Mitutoyo Corp.) twice a week from day 1 as the day of initiation of administration to the final day of the test.
The tumor volume was calculated by the following formula.
Numbers in Table 6 each indicate mean±standard error (SEM) of tumor volume. In the test carried out, six mice were used per group.

[3] = test system: xenograft model with the KRAS G12C mutation-positive human colorectal cancer cell line SW837; conditions: sotorasib 100 mg/kg, once per day, oral
[4] = test system: xenograft model with the KRAS G12C mutation-positive human bladder cancer cell line UM-UC-3; conditions: UM-UC-3 xenograft, E7386 25 mg/kg, sotorasib 100 mg/kg, once per day, oral
[5] = test system: KRAS G12D mutation-positive human bile duct cancer cell line SNU-869; test: Cell growth inhibitory activity of combined treatment, ultra-low adsorption plate, CellTiter-Glo 3D, 5 days; format: cell-based; conditions: 120 h, SNU-869, MRTX1133 alone
Experimental: (§1) With different KRAS mutation-positive cell lines, combined treatment of the compound represented by formula (I) and a KRAS inhibitor was evaluated on growth inhibitory activity. […] Cells were seeded in 96-well flat-bottomed ultra-low adsorption plate (manufactured by Corning Incorporated) at 5000 cells/well, and cultured at 5% CO2 and 37° C. for 1 day. […] The drug solutions were prepared by diluting their DMSO stocks with medium to specific concentrations, and added in such a manner that the volume of the culture medium reached 100 μL/well after addition of the drugs. After the culture for 5 days, 30 μL of CellTiter-Glo 3D Reagent (manufactured by Promega Corporation) was added to each well and reacted under shading for 30 minutes, and 50-μL portions were then transferred into a separate white 96-well plate (manufactured by Greiner Bio-One International GmbH), and the emission intensity of luciferase was measured with a plate reader (manufactured by PerkinElmer, Inc.). The measurement values were defined as the relative cell counts.

[6] = test system: KRAS G12D mutation-positive human endometrial cancer cell line HEC-1-B; test: as above; format: cell-based; conditions: 120 h, MRTX1133 alone
Experimental: as §1

GI50 [5] [nM] | GI50 [6] [nM] | SMILES | tumor volume, mean ± SEM ([1]; Day 11, E7386 25 mg/kg) | tumor volume, mean ± SEM ([1]; Day 15, E7386 25 mg/kg) | tumor volume, mean ± SEM ([2]; Day 4, E7386 25 mg/kg) | tumor volume, mean ± SEM ([2]; Day 8, E7386 25 mg/kg) | tumor volume, mean ± SEM ([2]; Day 11, E7386 25 mg/kg) | tumor volume, mean ± SEM ([2]; Day 15, E7386 25 mg/kg) | tumor volume, mean ± SEM ([2]; Day 18, E7386 25 mg/kg) | tumor volume, mean ± SEM ([3]; Day 5, E7386 25 mg/kg) | tumor volume, mean ± SEM ([3]; Day 12, E7386 25 mg/kg) | tumor volume, mean ± SEM ([4]; Day 5) | tumor volume, mean ± SEM ([4]; Day 12) | tumor volume, mean ± SEM ([4]; Day 15)
– | – | C=CCN1CC(=O)N2[C@@H](Cc3ccc(O)cc3F)C(=O)N(Cc3cccc(N4CC(N5CCN(CC)CC5)C4)n3)C[C@@H]2N1C(=O)NCc1ccccc1 [E7386, (6S,9aS)-N-benzyl-8-((6-(3-(4-ethylpiperazin-1-yl)azetidin-1-yl)pyridin-2-yl)methyl)-6-((2-fluoro-4-hydroxyphenyl)methyl)-4,7-dioxo-2-(prop-2-en-1-yl)-octahydro-1H-pyrazino[2,1-c][1,2,4]triazine-1-carboxamide] | 519.9 ± 34.1 | 714.4 ± 55.5 | 251.2 ± 8.1 | 327.4 ± 24.9 | 445.0 ± 26.3 | 579.1 ± 45.1 | 729.2 ± 56.7 | 221.5 ± 9.5 | 340.9 ± 17.5 | 337.4 ± 20.9 | 1487.0 ± 59.7 | 2526.8 ± 123.1
1.79 | 5.37 | C#Cc1c(F)ccc2cc(O)cc(-c3ncc4c(N5CC6CCC(C5)N6)nc(OC[C@@]56CCCN5C[C@@H](F)C6)nc4c3F)c12 [MRTX1133, 4-(4-((1R,5S)-3,8-diazabicyclo[3.2.1]octan-3-yl)-8-fluoro-2-(((2R,7aS)-2-fluorohexahydro-1H-pyrrolidin-7a-yl)methoxy)pyrodo[4,3-d]pyrimidin-7-yl)-5-et hynyl-6-fluoronaphthalen-2-ol] | – | – | – | – | – | – | – | – | – | – | – | –
